The record followed here is ChEMBL document CHEMBL5257032, “Therapeutic potential of coumarins as antiviral agents” (Eur J Med Chem, 2016).

The experiment concerns Influenza A virus. In words: Antiviral activity against Oseltamivir-resistant Influenza A virus. The class given is functional, organism-based.

Structures are written as SMILES.

A word on the EC50: it is the concentration that produces a half-maximal response.

The compound `Cc1cc(=O)oc2c1ccc1oc(C(=O)c3ccccc3)c(-c3ccccc3)c12` displayed an EC50 of 21 nM.
